From patent US8809314B1, “Cephalosporin compound” (Cubist Pharmaceuticals, Inc., priority 2012, dated 2014)
Converted amounts (≈) assume the structure as drawn. Where a name gives a salt, the structure may show the parent alone. Read-outs that look alike come from different tables or passages of the source.

Key:
[1] = tested on: ceftazidime-resistant Pseudomonas aeruginosa #2545; format: in vivo; conditions: Pa #2545; CD-1 mice, IP inoculum, 2 SC doses at 1 and 6 hrs, 7 day survival
Description: (§1) In vivo efficacy of (I) was evaluated against strains of MRSA, and ceftazidime-resistant Pa and Klebsiella pneumonia (Kpn) in mouse septicemia, thigh and lung infections. Septicemia: CD-1 mice received lethal bacterial inocula IP, followed by 2 doses of antibiotics SC at 1 and 6 hrs post-inoculation. Dose calculated to protect 50% of the mice (PD50) was derived based on probit analysis of percentage survival. Thigh and lung infections: Thighs or lungs of neutropenic mice were inoculated with MRSA or Pa. Two treatment doses were given SC at 1 and 6 hrs post-inoculation. Tissues were harvested at ˜24 hrs post-inoculation and bacterial burdens quantified.
(§2) II. Methods • A. Animals: Six week-old, specific pathogen free, female CD-1 mice purchased from Charles River Laboratories (Wilmington, Mass.) were used for all studies after acclimation in Cubist animal facility. […] MIC was determined in MHB by standard CLSI microdilution. […] The survival of animals was recorded daily for 7 days. The antibiotic dose calculated to protect 50% of the mice (PD50) was derived based on probit analysis of percentage survival. • E. Mouse Thigh and Lung Infections: Mice were rendered neutropenic by two IP injections of cyclophosphamide 4 days (150 mg/kg) and 1 day (100 mg/kg) before bacterial inoculation. […] Tissue bacterial burdens were quantified by serial dilution and spiral plating of homogenates.

[2] = tested on: ceftazidime-susceptible Pseudomonas aeruginosa #2245; assay: Lung infection in neutropenic mice; format: in vivo; conditions: Pa #2245 lung infection, 3-log CFU reduction vs vehicle at 24 h
Description: as §1
(§3) II. Methods • A. Animals: Six week-old, specific pathogen free, female CD-1 mice purchased from Charles River Laboratories (Wilmington, Mass.) were used for all studies after acclimation in Cubist animal facility. All animal procedures were approved by the Cubist Institutional Animal Care and Use Committee. • B. Bacteria and In Vitro Susceptibility Testing: MRSA #712, Pseudomonas aeruginosa #2245 and #2545, and Klebsiella pneumoniae #573 are clinical isolates; Pseudomonas aeruginosa #44 is an ATCC strain (ATCC#27853). MIC was determined in MHB by standard CLSI microdilution. Comparator Antibiotics Used in Animal Studies: Vancomycin hydrochloride USP was purchased from Hospira (Lake Forest, Ill.); ceftazidime hydrate from Sigma; Primaxin (imipenem and cilastatin) from Merck; ceftaroline was synthesized at a CRO. • D. Mouse Septicemia: Mice received lethal inocula of bacteria in 6% hog gastric mucin intraperitoneally (IP), followed by two treatment doses of antibiotics via subcutaneous (SC) administration at 1 and 6 hrs post-inoculation. The survival of animals was recorded daily for 7 days. The antibiotic dose calculated to protect 50% of the mice (PD50) was derived based on probit analysis of percentage survival. • E. Mouse Thigh and Lung Infections: Mice were rendered neutropenic by two IP injections of cyclophosphamide 4 days (150 mg/kg) and 1 day (100 mg/kg) before bacterial inoculation. Thigh or lung infection was induced by an intramuscular injection of 0.2 mL or intranasal inoculation of 0.1 mL inoculum preparation from an overnight bacterial culture into left thigh or nares. Tissues from one group of mice receiving no treatment (No Rx) were harvested at 1 hr for determination of baseline of bacterial burden. The remaining mice received two treatment doses of vehicles or antibiotics given SC at 1 and 6 hrs post-inoculation. Tissues from the treated mice were harvested at ˜24 hrs post-inoculation. Tissue bacterial burdens were quantified by serial dilution and spiral plating of homogenates.

[3] = tested on: ceftazidime-susceptible Pseudomonas aeruginosa #44 (ATCC#27853); assay: Lung infection in neutropenic mice; format: in vivo; conditions: Pa #44 lung infection
Description: as §1, §3

[4] = tested on: ceftazidime-resistant Pseudomonas aeruginosa #2545; assay: Lung infection in neutropenic mice; format: in vivo; conditions: Pa #2545 lung infection
Description: as §1, §3

Sa399 (MRSA) = assay: MIC, broth microdilution (Example 3), Table 1; format: cell-based; conditions: Staphylococcus aureus, CAMHB, final 2% NaCl
Description: (§4) To prepare for MIC testing, individual colonies were isolated by streaking frozen glycerol material containing Staphylococcus or Pseudomonas spp. onto rich, non-selective, tryptic soy agar containing 5% sheep's blood (TSAB), and incubated at 37° C. for 18-24 hrs.
(§5) On the day of testing, primary cultures were started by scraping off 5-10 colonies from the TSAB plates. The material was suspended in ˜5 mL of cation adjusted Mueller Hinton Broth (CAMHB) in 14 mL culture tubes and incubated at 37° C. with aeration (200 rpm) for ˜2 hrs until the OD600 was ≧0.1.
(§6) Inoculum cultures were prepared by standardizing the primary cultures to OD600=0.1 and then adding 20 μL of the adjusted primary culture per 1 mL CAMHB for Pseudomonas and CAMHB plus 4% NaCl for MRSA so that the final inoculum density was ˜10^5 colony forming units per milliliter. Diluted inoculum cultures were used to inoculate 50 μL per well in 96 well broth microdilution assay plates. 50 μL of CAMHB that contained compound concentrations ranging from 64-0.06 μg/mL in two-fold dilutions was also added to the broth microdilution assay plates for a final volume 100 μL per well, therefore final culture OD600 was approximately 0.001 and the final NaCl concentration for the MRSA strain was 2%.
(§7) Plates were incubated for 18-20 hours at 37° C. with aeration (200 rpm). Following incubation, growth was confirmed visually placing plates over a viewing apparatus (stand with a mirror underneath) and then OD600 was measured using a SpectraMax 340PC384 plate reader (Molecular Devices, Sunnyvale, Calif.). Growth was defined as turbidity that could be detected with the naked eye or achieving minimum OD600 of 0.1. MIC values were defined as the lowest concentration producing no visible turbidity.

Pa44 (WT Pa) = assay: MIC, broth microdilution (Example 3), Table 1; format: cell-based; conditions: Pseudomonas aeruginosa, CAMHB
Description: as §4, §5, §6, §7

Pa #44 (ATCC27853) = assay: MIC in MHB by standard CLSI microdilution (Example 4); format: cell-based; conditions: Pseudomonas aeruginosa
Excerpt: as §3

Kpn #573 = assay: as above; format: cell-based; conditions: Klebsiella pneumoniae
Excerpt: as §3

Pa #2545 = assay: as above; format: cell-based; conditions: Pseudomonas aeruginosa
Excerpt: as §3

[5] = tested on: Pseudomonas aeruginosa #44 (ATCC#27853); assay: Mouse septicemia (systemic infection), PD50; format: in vivo; conditions: Pa #44 (ATCC27853), CD-1 mice, IP inoculum, 2 SC doses at 1 and 6 hrs, 7 day survival
Description: as §1
(§8) II. Methods • A. Animals: Six week-old, specific pathogen free, female CD-1 mice purchased from Charles River Laboratories (Wilmington, Mass.) were used for all studies after acclimation in Cubist animal facility. All animal procedures were approved by the Cubist Institutional Animal Care and Use Committee. • B. Bacteria and In Vitro Susceptibility Testing: MRSA #712, Pseudomonas aeruginosa #2245 and #2545, and Klebsiella pneumoniae #573 are clinical isolates; Pseudomonas aeruginosa #44 is an ATCC strain (ATCC#27853). MIC was determined in MHB by standard CLSI microdilution. […] The survival of animals was recorded daily for 7 days. The antibiotic dose calculated to protect 50% of the mice (PD50) was derived based on probit analysis of percentage survival. • E. Mouse Thigh and Lung Infections: Mice were rendered neutropenic by two IP injections of cyclophosphamide 4 days (150 mg/kg) and 1 day (100 mg/kg) before bacterial inoculation. […] Tissue bacterial burdens were quantified by serial dilution and spiral plating of homogenates.
(§9) III. […] The dose that protected 50% of the mice (PD50) was calculated by probit analysis based on percentage of mice surviving for 7 days post-inoculation. • C. […]

[6] = tested on: Sa1721 (NARSA NRS384, MRSA USA 300); assay: MIC, broth microdilution (Example 5), Table 3; format: cell-based; conditions: Staphylococcus aureus
Description: (§10) II. […] MIC90 values were defined as the concentration required to inhibit growth of 90% of the strains tested. • C. SAR was performed using the following isolates: Sa399 (ATCC43300, MRSA), Sa1721 (NARSA NRS384, MRSA USA 300), Pa44 (ATCC27853), and 4 clinical isolates (Pa2241, Pa2086 (mucoid strain), Pa2694 and Pa2698). • D. The in vitro antibacterial activity of the compound of formula (I) was further evaluated in an expanded MRSA and Pa MIC panel (see Table 4 and FIG. 6).

Pa2698 = assay: MIC, broth microdilution (Example 5), Table 3; format: cell-based; conditions: Pseudomonas aeruginosa
Description: as §10

Pa2241 = assay: MIC, broth microdilution (Example 5), Table 3; format: cell-based; conditions: Pseudomonas aeruginosa
Description: as §10

Sa399 (ATCC43300, MRSA) = assay: MIC, broth microdilution (Example 5), Table 3; format: cell-based; conditions: Staphylococcus aureus
Description: as §10

Pa44 (ATCC27853) = assay: MIC, broth microdilution (Example 5), Table 3; format: cell-based; conditions: Pseudomonas aeruginosa
Description: as §10

Pa2694 = assay: MIC, broth microdilution (Example 5), Table 3; format: cell-based; conditions: Pseudomonas aeruginosa
Description: as §10

Pa2086 (mucoid strain) = assay: MIC, broth microdilution (Example 5), Table 3; format: cell-based; conditions: Pseudomonas aeruginosa
Description: as §10

[7] = tested on: Klebsiella pneumoniae #573; assay: Mouse septicemia (systemic infection), PD50; format: in vivo; conditions: Kpn #573; CD-1 mice, IP inoculum, 2 SC doses at 1 and 6 hrs, 7 day survival
Description: as §1, §2

[8] = tested on: Pseudomonas aeruginosa (n = 100); assay: MIC90, expanded MIC panel (Table 4); format: cell-based; conditions: 100 Pa strains
Description: as §10

MRSA #712 [9] = assay: MIC in MHB by standard CLSI microdilution (Example 4); format: cell-based; conditions: Staphylococcus aureus
Excerpt: as §3

MRSA (n = 21) = assay: MIC90, expanded MIC panel (Table 4); format: cell-based; conditions: Staphylococcus aureus, read-out: MIC90 MRSA (n = 21)
Description: as §10

MRSA #712 [10] = assay: Thigh infection in neutropenic mice; format: in vivo, Staphylococcus aureus
Description: as §1, §8

MRSA #712 [11] = assay: Mouse septicemia (systemic infection), PD50; format: in vivo, Staphylococcus aureus; conditions: CD-1 mice, IP inoculum, 2 SC doses at 1 and 6 hrs, 7 day survival
Description: as §1
II. […] MIC was determined in MHB by standard CLSI microdilution. […] The survival of animals was recorded daily for 7 days. The antibiotic dose calculated to protect 50% of the mice (PD50) was derived based on probit analysis of percentage survival. • E. Mouse Thigh and Lung Infections: Mice were rendered neutropenic by two IP injections of cyclophosphamide 4 days (150 mg/kg) and 1 day (100 mg/kg) before bacterial inoculation. […] Tissue bacterial burdens were quantified by serial dilution and spiral plating of homogenates.
as §9

SMILES: CC(C)(O/N=C(\C(=O)N[C@@H]1C(=O)N2C(C(=O)[O-])=C(C[n+]3ccccc3)CS[C@H]12)c1csc(N)n1)C(=O)O [Ceftazidime]
- Septicemia PD50 (± SE) [1]: >140.5 mg/kg
- ED−3 log [2]: 27.2 mg/kg
- Lung (L) ED−2log ([3]; 2 SC doses at 1 and 6 hrs, 24 h, vs vehicle): 25.6 (L) mg/kg
- ED−3 log ([3]; 3-log CFU reduction vs vehicle at 24 h): 50.4 mg/kg
- Lung (L) ED−2log ([4]; neutropenic mice, 2 SC doses at 1 and 6 hrs, 24 h, vs vehicle): >144.5 (L) mg/kg
- impact on the bacterial burden in the lung ([4]; up to 144.5 mg/kg): minimal impact
- MIC (Sa399 (MRSA)): > 16 µg/mL
- MIC (Pa44 (WT Pa)): ≤ 4 µg/mL
- MIC (Pa #44 (ATCC27853)): 1 µg/mL (≈ 1.83 µM)
- MIC (Kpn #573): 256 µg/mL (≈ 468 µM)
- MIC (Pa #2545): 32 to 64 µg/mL (≈ 58.5 to 117 µM)
- Septicemia PD50 (± SE) [5]: 33.9 ± 7.4 mg/kg
- Septicemia PD50 (± SE) ([5]; listed as ceftazidime): 33.9 ± 7.4 mg/kg
- MIC [6]: > 64 µg/mL
- MIC (Pa2698): 8 µg/mL (≈ 14.6 µM)
- MIC (Pa2241): 2 µg/mL (≈ 3.66 µM)
- MIC (Sa399 (ATCC43300, MRSA)): 64 µg/mL (≈ 117 µM)
- MIC (Pa44 (ATCC27853)): 2 µg/mL (≈ 3.66 µM)
- MIC (Pa2694): 8 µg/mL (≈ 14.6 µM)
- MIC (Pa2086 (mucoid strain)): 2 µg/mL (≈ 3.66 µM)
- Septicemia PD50 (± SE) [7]: 50.3 ± 8.4 mg/kg
- MIC90 [8]: 8 µg/mL (≈ 14.6 µM)

SMILES: CCO/N=C(\C(=O)N[C@@H]1C(=O)N2C(C(=O)[O-])=C(Sc3nc(-c4cc[n+](C)cc4)cs3)CS[C@H]12)c1nsc(N)n1 [Ceftaroline, ceftaroline]
- MIC (MRSA #712 [9]; MRSA #712, read-out: MIC): 1 µg/mL (≈ 1.65 µM)
- MIC [6]: 2 µg/mL (≈ 3.31 µM)
- MIC (Pa2698): > 64 µg/mL
- MIC (Pa2241): 16 µg/mL (≈ 26.5 µM)
- MIC (Sa399 (ATCC43300, MRSA)): 0.5 µg/mL (≈ 0.827 µM)
- MIC (Pa44 (ATCC27853)): 8 µg/mL (≈ 13.2 µM)
- MIC (Pa2694): > 64 µg/mL
- MIC (Pa2086 (mucoid strain)): 16 µg/mL (≈ 26.5 µM)
- MIC90 (MRSA (n = 21); 21 MRSA strains): 1 µg/mL (≈ 1.65 µM)

SMILES: CN[C@H](CC(C)C)C(=O)N[C@H]1C(=O)N[C@@H](CC(N)=O)C(=O)N[C@H]2C(=O)N[C@H]3C(=O)N[C@H](C(=O)N[C@H](C(=O)O)c4cc(O)cc(O)c4-c4cc3ccc4O)[C@H](O)c3ccc(c(Cl)c3)Oc3cc2cc(c3O[C@@H]2O[C@H](CO)[C@@H](O)[C@H](O)[C@H]2O[C@H]2C[C@](C)(N)[C@H](O)[C@H](C)O2)Oc2ccc(cc2Cl)[C@H]1O [Vancomycin, Vancomycin hydrochloride]
- Thigh (T) ED−2log (MRSA #712 [10]; MRSA #712 thigh infection, neutropenic mice, 2 SC doses at 1 and 6 hrs, 24 h, vs vehicle): >110 (T) mg/kg
- reduction in bacterial CFU (MRSA #712 [10]; MRSA #712 thigh, 110 mg/kg SC): ~1.5 log
- MIC (MRSA #712 [9]; MRSA): 1 µg/mL
- Septicemia PD50 (± SE) (MRSA #712 [11]): 2.0 ± 1.3 mg/kg
- MIC90 (MRSA (n = 21); MRSA): 1 µg/mL
